Biological target: T1, AT1 receptors (Homo sapiens, UniProt P30556)
T1 construct: host or cells: HEK293
T1 sequence (P30556 1-359): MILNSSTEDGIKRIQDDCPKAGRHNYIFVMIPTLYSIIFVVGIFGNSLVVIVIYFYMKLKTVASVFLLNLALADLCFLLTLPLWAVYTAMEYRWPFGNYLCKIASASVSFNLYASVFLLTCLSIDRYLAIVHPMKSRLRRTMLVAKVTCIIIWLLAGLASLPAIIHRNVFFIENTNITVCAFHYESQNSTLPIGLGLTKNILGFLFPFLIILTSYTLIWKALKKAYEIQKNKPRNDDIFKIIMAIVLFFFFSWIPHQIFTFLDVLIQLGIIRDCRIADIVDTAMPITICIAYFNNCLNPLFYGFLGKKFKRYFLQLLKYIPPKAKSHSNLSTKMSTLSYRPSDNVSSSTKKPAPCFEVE
Assay: Effect on calcium current in cells stably expressing AT1 receptors (FLIPR, antagonist mode)
Format: cell-based
Conditions: HEK293-AT1 cells, Fluo-8 AM, FLIPR Tetra; read-out: IC50 values of compounds on calcium current in cells stably expressing AT1 receptors
Text: Test Example 1. Determination of the Effect of the Compounds of the Present Invention on Calcium Current in Cells Stably Expressing AT1 Receptors
Antagonistic effect of test compounds on HEK293-AT1 cell activity
• DMEM, high glucose (Gibco: 12100); • Fetal bovine serum (Biosera: FB-1058/500); • P/S (Biosera: XC-A4122); • 5× Matrigel (Corning: 354230); • HBSS (Sigma: H1387); • HEPES (Invitrogen: 15630080); • Fluo-8 AM (AAT Bioquest: 21080); • Probenecid (Sigma: P8761); • Pluronic F-127 (Sigma: P2443-250G); • Angiotensin III TFA (MCE: HY-113035A); • Irbesartan (MCE: HY—B0202); • 1000× Fluo-8 AM (2 mM): Fluo-8 AM was dissolved in DMSO, the mixture was shaken for 1-2 min, sub-packaged and stored at −20° C.; • Complete culture medium: DMEM+10% FBS+1×P/S; • Cell seeding medium: DMEM+10% FBS+1×PS; • Experimental buffer 1: 1×HBSS+20 mM HEPES+1 mM Probenecid+0.025% Pluronic F-127; • Experimental buffer 2: 1×HBSS+20 mM HEPES+0.075% Pluronic F-127; • 1× Matrigel: 5× Matrigel was diluted with DMEM; • Cell line: HDB HEK293-AT1.
• 1) HEK293-AT1 cell line was cultured in complete culture medium at 37° C., 5% CO2 to 70%-90% confluence. • 2) the 384-well cell plate was coated with 1× Matrigel with 5 μL/well at room temperature for 10 to 30 min. • 3) the cells were digested and resuspended in cell seeding medium, inoculation was performed at 8,000 cells/well/20 μL in a 384-well cell culture plate, and the cells were cultured at 37° C., 5% CO2 for 24 h. • 4) the cell culture plate was taken out of the CO2 incubator and equilibrated at room temperature for 10 min. • 5) 1000× Fluo-8 AM was taken and diluted to 1× Fluo-8 AM with experimental buffer 1 that has been equilibrated to room temperature, with a concentration of 2 μM. • 6) the culture medium was removed from the cell culture plate, 20 μL of 1× Fluo-8 AM was added to each well, the mixture was centrifuged at 300 rpm for 60 seconds at room temperature, and incubated at room temperature in the dark for 1 h. • 7) positive control compound and test compound working solution (3×) were formulated: • (1) instrument Bravo was used to dilute the compound to 11 concentration points on the 384-well Echo compound plate (LABCYTE: LP-0200); • (2) instrument ECHO was used to transfer 90 nL of compound per well (compound storage concentration, such as the highest concentration point 10 mM) to the 384-well compound plate (PE: 6008590); • (3) Multidrop Combi was used to add 30 μL of experimental buffer 2 to the 384-well compound plate (PE: 6008590), the positive control compound and test compound were diluted to 30 μM (3×), and placed at room temperature until use. • 8) FLIPR Tetra was used to add 10 μL of diluted 3× compound into the experimental well of the corresponding 384-well cell plate, the compound and cells were incubated for 10 min at room temperature, then 10 μL of diluted 4× agonist was added, and the data was read and collected at the same time.
FLIPR Tetra was used to read and collect the fluorescence signal value (RFU). The maximum RFU value was used to calculate the percent activation data based on the readings of the Low control (DMSO control) and High control (100 nM positive compound) experimental groups {% activation rate=(RFUsample−RFUlow control)/(RFUhigh control−RFUlow control)×100}. The concentration of the test compound was 11 concentrations after diluting the reaction system 3 times, ranging from 10 uM to 0.17 nM.

| SMILES | IC50 [nM] |
| --- | --- |
| CCCCC1=NC2(CC3CC3C2)C(=O)N1Cc1ccc(-c2ccccc2S(=O)(=O)Nc2noc(C)c2Cl)c(COCC)c1 (stereo not drawn) [Example 65, 4′-((2′-butyl-5′-oxaspiro[bicyclo[3.1.0]hexane-3,4′-imidazole]-1′(5′H)-yl)methyl)-N-(4-chloro-5-methylisoxazol-3-yl)-2′-(ethoxymethyl)-[1,1′-biphenyl]-2-sulfonamide] | 4.4 |
| CCCCC1=NC2(CCCC2)C(=O)N1Cc1ccc(-c2ccccc2S(=O)(=O)Nc2noc(C)c2Cl)c(COCC(F)(F)F)c1 [Example 86] | 2.2 |
| [2H]C([2H])(OCC)c1cc(CN2C(=O)C3(CCCC3)N=C2CCCC)ccc1-c1ccccc1S(=O)(=O)Nc1noc(C)c1Cl [Example 49, 4′-((2-butyl-4-oxo-1,3-diazospiro[4.4]non-1-en-3-yl)methyl)-N-(4-chloro-5-methylisoxazol-3-yl)-2′-(ethoxydeuteriummethyl)-[1,1′-biphenyl]-2-sulfonamide] | 7.2 |
| CCCCC1=NC2(CCCCC2)C(=O)N1Cc1ccc(-c2ccccc2S(=O)(=O)Nc2noc(C)c2Cl)c(COCC)c1 [Example 68, 4′-((2-2-4-4-oxo-1,3-diazaspiro[4.5]dec-1-en-3-yl)methyl)-N-(4-chloro-5-methylisoxazol-3-yl)-2′-(ethoxymethyl)-[1,1′-biphenyl]-2-sulfonamide] | 8.8 |
| CCCCC1=NC2(CCCC2)C(=O)N1Cc1ccc(-c2ccccc2S(=O)(=O)Nc2noc(C)c2Br)c(COCC)c1 [Example 46, 2-[4-[(2-butyl-4-oxo-1,3-diazaspiro[4.4]non-1-en-3-yl)methyl]-2-(ethoxymethyl)phenyl]-N-(4-bromo-5-methyl-isoxazol-3-yl)benzsulfamide] | 3.9 |
| CCCCC1=NC2(CC3CC3C2)C(=O)N1Cc1ccc(-c2ccccc2S(=O)(=O)Nc2noc(C)c2C)c(COCC)c1 (stereo not drawn) [Example 87, 4′-((2′-butyl-5′-oxaspiro[bicyclo[3.1.0]hexane-3,4′-imidazole]-1′(5′H)-yl)methyl)-N-(4,5-dimethylisoxazol-3-yl)-2′-(ethoxymethyl)-[1,1′-biphenyl]-2-sulfonamide] | 9.6 |

From patent US20240368123A1, “AROMATIC RING-CONTAINING BIOLOGICAL ANTAGONIST, AND PREPARATION METHOD THEREFOR AND USE THEREOF” (SHANGHAI HANSOH BIOMEDICAL CO., LTD., priority 2021, published 2024)
